Experimental findings from patent US8343580B2, “Organometallic compounds” (Rohm and Haas Electronic Materials LLC, priority 2009, dated 2013) are described below.

Data set [1] in a line: Solubility in organic solvents at room temperature by direct dissolution method. The conditions noted are these: for Solubility: room temperature; for Solubility in aromatic solvents: toluene and tetralin, by NMR spectroscopy and direct dissolution method. Format: physicochemical. The protocol: The solubility of N,N′-di-tert-butylacetamidinato-N,N′-di-tert-butylacetamidinatocarbamoyl dicarbonyl Ruthenium(II) (“Ru-Cbm-Invention”, from Example 1) and bis(N,N′-di-tert-butylacetamidinato) dicarbonyl Ruthenium(II) (“Ru-AMD-Comparative”) were determined at room temperature in a variety of solvents by direct dissolution method. The solid Ru-AMD-Comparative compound was prepared by the synthetic route described in R. Gordon et al., The Open Inorganic Chemistry Journal, 2 (2008) 11. Compounds with less than 0.01 wt % dissolved were considered to be sparingly soluble.

Data set [2] in a line: Decomposition temperature by accelerated rate calorimetry (ARC). Type of data set: physicochemical. Conditions: ARC adiabatic calorimeter, self-heating exceeding 0.02° C./minute. How it is done:
The decomposition temperature of N,N′-di-tert-butylacetamidinato-N,N′-di-tert-butylacetamidinatocarbamoyl dicarbonyl Ruthenium(II) (“Ru(AMD)-Cbm”) was determined using accelerated rate calorimetry (ARC™ adiabatic calorimeter available from Arthur D. Little). A sample of the compound was placed in a spherical bomb that was connected to a sealed pressure measurement system. A thermocouple was attached to the outside of the bomb and the bomb was placed in the center of the calorimeter assembly. The calorimeter assembly has 3 zones, each zone having its own thermocouple and heaters. The ARC™ calorimeter uses a heat-wait-search-exotherm program. The calorimeter and the sample were heated to a start temperature. The sample and calorimeter temperatures equilibrated during the wait portion of the program. Next, the calorimeter monitored the sample for self-heating (exceeding 0.02° C./minute) during the search portion of the program to determine the onset temperature of the exotherm. To be useful in ALD processes, a precursor should not decompose at temperatures at or below 140° C., and preferably not at or below 150° C.

The mark [3] stands for this setting: Mixture of Diphenyl ether and Biphenyl.
The mark [4] stands for this setting: Polyethylene glycol dibutyl ether.

Bounds are passed on as bounds.

In the case of `CC(=NC(C)(C)C)[N]([Ru][N](C(C)=NC(C)(C)C)C(C)(C)C)C(C)(C)C.[C-]#[O+].[C-]#[O+]` [Ru-AMD, bis(N,N′-di-tert-butylacetamidinato) dicarbonyl Ruthenium(II), reference compound], the Solubility in data set [1] (Cyclohexylbenzene), in data set [1] (Cyclohexylbenzene:LAB (1:1)), in data set [1] (LAB), in data set [1] (setting [3]), in data set [1] (Pentamethyldiethylenetriamine) and in data set [1] (setting [4]) was below 0.01 wt % throughout. Besides, the Solubility was 0.7 wt % in data set [1] (THF), below 0.01 wt % in data set [1] (Tetralin), below 0.01 wt % in data set [1] (Toluene) and “insoluble” in data set [1] (n-Octane). In addition, the “Solubility in aromatic solvents” value in data set [1] is recorded as “little to no solubility”.

Take `CC1=[N+](C(C)(C)C)[Ru-4]2([C]#[O+])([C]#[O+])([C](=O)N1C(C)(C)C)[N](C(C)(C)C)C(C)=[N+]2C(C)(C)C` [Ru-Cbm, N,N′-di-tert-butylacetamidinato-N,N′-di-tert-butylacetamidinatocarbamoyl dicarbonyl Ruthenium(II)]: in data set [2], the “Temperature up to which the sample was stable (decomposition, onset of exotherm)” value is “up to 250 °C”. The Solubility in data set [1] (Cyclohexylbenzene) worked out at 6.0 wt %; in data set [1] (Cyclohexylbenzene:LAB (1:1)), 6.0 wt %; in data set [1] (LAB), 3.0 wt %; in data set [1] (setting [3]), 12.0 wt %; in data set [1] (Pentamethyldiethylenetriamine), 15.0 wt %; in data set [1] (setting [4]) it was 8.0 wt %. The Solubility in data set [1] (THF) was 43.6 wt %; in data set [1] (Tetralin) it was 8.5 wt %; in data set [1] (Toluene), 38.5 wt %; in data set [1] (n-Octane) it was 2.3 wt %. Also, the “Increase of solubility as compared to Ru-AMD” value in data set [1] (in tetrahydrofuran) is 62 fold. In addition, the “Solubility in aromatic solvents” value in data set [1] is “soluble”.
